Source: patent US6989389B2, “Aryl ether substituted imidazoquinolines” (3M Innovative Properties Co., priority 2000, dated 2006)
Like-named read-outs stand apart in the source and are kept apart here.

What was measured:
[1] = tested on: Peripheral blood mononuclear cells (PBMC); experiment: Cytokine Induction in Human Cells (in vitro human blood cell system, IFN and TNF secreted into culture media); type: cell-based; set-up: key to Lowest Effective Concentration (μM) Tumor Necrosis Factor / Lowest Effective Concentration (μM) Interferon: *: no induction was seen at any of the tested concentrations; details: 18 to 24 hours, tested 30-0.014 μM
How it was run: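 Human donor PBMC (2×10^6 cells/mL, RPMI complete) incubated 18–24 h at 37 °C, 5% CO2 with compound, 3-fold dilutions 30–0.014 μM, ≤1% DMSO. IFN-α measured by ELISA, TNF-α by ELISA or IGEN immunoassay in supernatants (pg/mL). Value is lowest concentration inducing each cytokine.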

[2] = Homo sapiens, PBMC, lowest concentration found to induce interferon (α), ELISA, read-out: Lowest Effective Concentration (μM) Interferon
[3] = Homo sapiens, PBMC, lowest concentration found to induce tumor necrosis factor (α), ELISA or IGEN assay, read-out: Lowest Effective Concentration (μM) Tumor Necrosis Factor
[4] = lowest concentration found to induce tumor necrosis factor (α), ELISA or IGEN assay
[5] = lowest concentration found to induce interferon (α), ELISA

Compound	minimal effective concentration [1, 2]	minimal effective concentration [1, 3]	melting point	minimal effective concentration ([1]; lowest concentration found to induce interferon (α), ELISA, read-out: Lowest Effective Concentration (μM) Interferon)	Lowest Effective Concentration (μM) Tumor Necrosis Factor [1, 4]	Lowest Effective Concentration (μM) Interferon [1, 5]
Nc1nc2ccccc2c2c1ncn2CCOCC#Cc1ccccc1 [Example 3, 1-{2-[(3-Phenyl-2-propynyl)oxy]ethyl}-1H-imidazo[4,5-c]quinolin-4-amine]	0.12 µM	3.33 µM	196 to 197 °C			
Cl.Nc1nc2ccccc2c2c1ncn2CCOCC#Cc1ccccc1 [Example 4, 1-{2-[(3-Phenyl-2-propynyl)oxy]ethyl}-1H-imidazo[4,5-c]quinolin-4-amine Hydrochloride]			231 to 236 °C	0.12 µM	*	
COc1ccc(CCCOCCn2cnc3c(N)nc4ccccc4c32)cc1 [Example 5, 1-{2-[3-(4-Methoxyphenyl)propoxy]ethyl}-1H-imidazo[4,5-c]quinolin-4-amine]	0.12 µM	1.11 µM	116 to 118 °C			
CNS(=O)(=O)c1ccc(C)c(CCCOCCn2cnc3c(N)nc4ccccc4c32)c1 [Example 6, N^1,4-Dimethyl-3-{3-[2-(4-amino-1H-imidazo[4,5-c]quinolin-1-yl)ethoxy]propyl}-1-benzensulfonamide]	0.12 µM		207 to 209 °C		*	
Cc1cccc(C)c1C#CCOCCn1cnc2c(N)nc3ccccc3c21 [Example 8, 1-(2-{[3-(2,6-Dimethylphenyl)-2-propynyl]oxy}ethyl)-1H-imidazo[4,5-c]quinolin-4-amine]	1.11 µM	10 µM	200 to 201 °C			
Nc1nc2ccccc2c2c1ncn2CCOCC#Cc1ccc(Oc2ccccc2)cc1 [Example 9, 1-(2-{[3-(4-Phenoxyphenyl)-2-propynyl]oxy}ethyl)-1H-imidazo[4,5-c]quinolin-4-amine]			146 to 148 °C		*	*
Nc1nc2ccccc2c2c1ncn2CCOCC#Cc1ccccc1C(F)(F)F [Example 10, 1-[2-({3-[2-(Trifluoromethyl)phenyl]-2-propynyl}oxy)ethyl]-1H-imidazo[4,5-c]quinolin-4-amine]	1.11 µM	10 µM	154 to 155 °C			
CCC(COCc1cccc(Cl)c1)n1cnc2c(N)nc3ccccc3c21 (stereo not drawn) [Example 17, 1-(1-{[(3-Chlorobenzyl)oxy]methyl}propyl)-1H-imidazo[4,5-c]quinolin-4-amine]	0.12 µM	0.37 µM	60 to 62 °C			
N#Cc1ccc(COCCn2cnc3c(N)nc4ccccc4c32)cc1 [Example 19, 4-{[2-(4-Amino-1H-imidazo[4,5-c]quinolin-1-yl)ethoxy]methyl}benzonitrile]	0.37 µM		238.1 to 239.2 °C		*	
Cc1ccc(C#CCOCCn2cnc3c(N)nc4ccccc4c32)cc1C [Example 23, 1-(2-{[3-(3,4-Dimethylphenyl)-2-propynyl]oxy}ethyl]-1H-imidazo[4,5-c]quinolin-4-amine]	1.11 µM		214 to 216 °C		*	
CC[C@H](COCC#Cc1ccccc1)n1cnc2c(N)nc3ccccc3c21 [Example 108, 1-((1R)-1-{[(3-Phenylprop-2-ynyl)oxy]methyl}propyl)-1H-imidazo[4,5-c]quinolin-4-amine]	0.00017 µM	0.04 µM	63 to 67 °C			
Nc1nc2ccccc2c2c1ncn2COCc1ccccc1 [Example 113, 1-[(Benzyloxy)methyl]-1H-imidazo[4,5-c]quinolin-4-amine]	1.11 µM		168 to 172 °C		*	
Nc1nc2ccccc2c2c1ncn2CCOC/C=C/c1ccccc1 [Example 115, 1-(2-{[(2E)-3-Phenylprop-2-enyl]oxy}ethyl)-1H-imidazo[4,5-c]quinolin-4-amine]	0.12 µM	1.11 µM	183.7 to 184.3 °C			
CCCCCCCCc1nc2c(N)nc3ccccc3c2n1CCOCC#Cc1ccccc1 [Example 116, 2-Octyl-1-{2-[(3-phenylprop-2-ynyl)oxy]ethyl}-1H-imidazo[4,5-c]quinolin-4-amine]			138 to 138.7 °C		*	*
CCCCCCCCc1nc2c(N)nc3ccccc3c2n1CCOCCCc1ccccc1 [Example 117, 2-Octyl-1-[2-(3-phenylpropoxy)ethyl]-1H-imidazo[4,5-c]quinolin-4-amine]			103.8 to 104.5 °C		*	*
Cc1nc2c(N)nc3ccccc3c2n1CCOCCCc1ccccc1 [Example 119, 2-Methyl-1-[2-(3-phenylpropoxy)ethyl]-1H-imidazo[4,5-c]quinolin-4-amine]	0.01 µM	0.12 µM	129.7 to 130.7 °C			
COCCc1nc2c(N)nc3ccccc3c2n1CCOCC#Cc1ccccc1 [Example 120, 2-(Methoxyethyl)-1-{2-[(3-phenylprop-2-ynyl)oxy]ethyl}-1H-imidazo[4,5-c]quinolin-4-amine]	0.01 µM	0.01 µM	134.5 to 135.5 °C			
COCCc1nc2c(N)nc3ccccc3c2n1CCOCCCc1ccccc1 [Example 121, 2-(2-Methoxyethyl)-1-[2-(3-phenylpropoxy)ethyl]-1H-imidazo[4,5-c]quinolin-4-amine]	0.01 µM	0.04 µM	103.8 to 104.5 °C			
CCOCc1nc2c(N)nc3ccccc3c2n1CCOCC#Cc1ccccc1 [Example 122, 2-(Ethoxymethyl)-1-{2-[(3-phenylprop-2-ynyl)oxy]ethyl}-1H-imidazo[4,5-c]quinolin-4-amine]	0.01 µM	0.12 µM	110.8 to 111.7 °C			
CCCCc1nc2c(N)nc3ccccc3c2n1CCOCC#Cc1ccccc1 [Example 123, 2-Butyl-1-{2-[(3-phenylprop-2-ynyl)oxy]ethyl}-1H-imidazo[4,5-c]quinolin-4-amine]	0.12 µM	10 µM	133 to 140 °C			
CCCCc1nc2c(N)nc3ccccc3c2n1CCOCCCc1ccccc1 [Example 124, 2-Butyl-1-[2-(3-phenylpropoxy)ethyl]-1H-imidazo[4,5-c]quinolin-4-amine]	1.11 µM	10 µM	80.8 to 81.3 °C			
CCOCc1nc2c(N)nc3ccccc3c2n1CCOCc1ccccc1 [Example 125, 1-[2-(Benzyloxy)ethyl]-2-(ethoxymethyl)-1H-imidazo[4,5-c]quinolin-4-amine]	0.01 µM	0.37 µM	144.5 to 146 °C			
CCCCc1nc2c(N)nc3ccccc3c2n1CCOCc1ccccc1 [Example 126, 1-[2-(Benzyloxy)ethyl]-2-butyl-1H-imidazo[4,5-c]quinolin-4-amine]	0.04 µM	0.04 µM	133 to 135 °C			
